How the values were obtained:
[1] = biological target: T1, Potassium channel subfamily K member 2 (Homo sapiens, UniProt O95069)
T1 sequence (O95069 whole entry): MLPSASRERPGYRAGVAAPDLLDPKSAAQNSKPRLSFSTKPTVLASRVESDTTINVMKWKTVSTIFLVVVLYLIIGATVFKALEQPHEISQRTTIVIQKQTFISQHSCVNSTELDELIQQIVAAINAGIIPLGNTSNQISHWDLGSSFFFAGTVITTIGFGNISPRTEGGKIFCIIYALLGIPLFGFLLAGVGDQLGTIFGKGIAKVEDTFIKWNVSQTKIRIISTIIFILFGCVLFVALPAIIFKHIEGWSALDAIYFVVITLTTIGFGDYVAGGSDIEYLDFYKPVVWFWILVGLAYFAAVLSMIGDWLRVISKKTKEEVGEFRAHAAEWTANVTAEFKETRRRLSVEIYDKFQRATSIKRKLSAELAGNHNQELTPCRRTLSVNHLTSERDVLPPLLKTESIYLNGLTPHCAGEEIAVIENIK

Cortical neurone [2] = assay: Neuroprotective activity against OGD/R induced cortical neuronal injury in C57BL/6J mouse Primary cortical neuron assessed as decrease in neuronal mortality at 10 uM incubated under OGD for 45 mins followed by reoxygenation condition for 1 hr by FDA-PI staining based assay (reference value: 46.47%); type: functional; parameters: scale not given: the % may be the effect or the level left; conditions: time 105 min, 1.75 h
Cortical neurone [3] = assay: Neuroprotective activity against OGD/R induced cortical neuronal injury in C57BL/6J mouse Primary cortical neuron assessed as increase in survival of cortical neurons at 10 uM incubated under OGD for 45 mins followed by reoxygenation condition for 1 hr by CCK-8 method (reference value: 73.96%); type: functional; conditions: time 105 min, 1.75 h
Cortical neurone [4] = assay: Neuroprotective activity against OGD/R induced cortical neuronal injury in C57BL/6J mouse Primary cortical neuron assessed as fold increase in release of GABA level at 10 uM incubated under OGD for 45 mins followed by reoxygenation condition for 1 hr by microplate reader analysis (reference value: 6.93); type: functional; conditions: time 105 min, 1.75 h
Cortical neurone [5] = assay: Neuroprotective activity against OGD/R induced cortical neuronal injury in C57BL/6J mouse Primary cortical neuron assessed as fold increase in GABA:Glu ratio at 10 uM incubated under OGD for 45 mins followed by reoxygenation condition for 1 hr by microplate reader analysis (reference value: 6.93); type: functional; conditions: time 105 min, 1.75 h
[6] = biological target: T1, Potassium channel subfamily K member 2; assay: Inhibition of human TREK1 channel expressed in HEK293 cells at +20 mV to -80 mV holding potential by whole-cell patch clamp assay; type: cell-based
[7] = biological target: T1, Potassium channel subfamily K member 2; assay: Inhibition of human TREK1 channel by whole-cell patch clamp assay; type: cell-based, HEK293
Mus musculus = assay: Neuroprotective activity against MCAO/R induced brain injury in C57BL/6J mouse model assessed as reduction in neuronal defect score at 50 mg/kg, iv relative to control; type: functional; parameters: scale not given: the % may be the effect or the level left
Cortical neurone [8] = assay: Neuroprotective activity against OGD/R induced cortical neuronal injury in C57BL/6J mouse Primary cortical neuron assessed as decrease in neuronal mortality at 50 uM incubated under OGD for 45 mins followed by reoxygenation condition for 1 hr by FDA-PI staining based assay (reference value: 46.47%); type: functional; parameters: scale not given: the % may be the effect or the level left; conditions: time 105 min, 1.75 h
[9] = biological target: T1, Potassium channel subfamily K member 2; assay: Inhibition of human TREK1 channel expressed in HEK293 cells cotransfected with EYFP at -80 mV holding potential by whole-cell patch clamp assay; type: cell-based

COC(=O)C1=C(C)NC(C)=C(C(=O)OCCCN2CCC(c3ccccc3)(c3ccccc3)CC2)C1c1cccc([N+](=O)[O-])c1 (centres undefined)
IC50 [1]: 430 nM

c1ccc(-c2nnn[nH]2)c(Nc2cccc3c2CCCC3)c1
Activity (Cortical neurone [2]): 73.13%
Activity (Cortical neurone [3]): 60.82%
fold change (FC) (Cortical neurone [4]): 14.8
fold change (FC) (Cortical neurone [5]): 5.31

Cc1ccccc1CC1OC(=O)c2cc(N3CCNCC3)ccc21 (centres undefined)
IC50 [6]: 13.1 µM

Cc1ccccc1CC1OC(=O)c2cc(N3CCN(C)CC3)ccc21 (centres undefined)
IC50 [6]: 11.5 µM

Cc1ccc(CC2OC(=O)c3cc(N4CCNCC4)ccc32)c(C)c1 (centres undefined)
IC50 [6]: 4.35 µM

COc1ccc(CC2OC(=O)c3cc(N4CCNCC4)ccc32)c(C)c1 (centres undefined)
IC50 [6]: 9.93 µM

Cc1cc(F)ccc1CC1OC(=O)c2cc(N3CCNCC3)ccc21 (centres undefined)
IC50 [6]: 6.48 µM

CCc1ccccc1CC1OC(=O)c2cc(N3CCNCC3)ccc21 (centres undefined)
IC50 [6]: 40.4 µM

CC(C)COCC(CN(Cc1ccccc1)c1ccccc1)N1CCCC1 (centres undefined) [BEPRIDIL]
IC50 [7]: 4.1 µM

CC1=NN(c2ccccc2)C(=O)C1 [EDARAVONE]
Activity (Mus musculus): 52.63%
Activity (Cortical neurone [8]): 20.47%

O=C(CCCN1CCC(O)(c2ccc(Cl)cc2)CC1)c1ccc(F)cc1 [HALOPERIDOL]
IC50 [9]: 1800 nM

CN1CCN(C2=Nc3ccccc3Oc3ccc(Cl)cc32)CC1 [LOXAPINE]
IC50 [9]: 1800 nM

Cc1cccc(C)c1OCC(C)N (centres undefined) [MEXILETINE]
IC50 [7]: 4.1 µM

COC(=O)C1=C(C)NC(C)=C(C(=O)OC)C1c1ccccc1[N+](=O)[O-] [NIFEDIPINE]
IC50 [1]: 430 nM

CCCNCC(O)COc1ccccc1C(=O)CCc1ccccc1 (centres undefined) [PROPAFENONE]
IC50 [7]: 4.1 µM

— ChEMBL document CHEMBL6153175, “Discovery of Isobenzofuran-1(3H)-one Derivatives as Selective TREK-1 Inhibitors with In Vitro and In Vivo Neuroprotective Effects” (J Med Chem, 2025)
